The subject of assay [1] is Escherichia coli ATCC 25922. Description: microbe, parasite or virus in culture. The assay is classed as cell-based. The conditions noted are these: ATCC25922.
Assay [2] has as its system Klebsiella pneumoniae ATCC 700603. Description: microbe, parasite or virus in culture. In kind it is cell-based. The conditions noted are these: ATCC700603.
Assay [3] has as its system Pseudomonas aeruginosa ATCC 27853. Description: microbe, parasite or virus in culture. In kind it is cell-based. The following applies: ATCC27853.
For assay [4], the system named is Enterobacter cloacae NCTC 13406. Description: microbe, parasite or virus in culture. In kind it is cell-based. The following applies: NCTC13406.
Assay [5] deals with human hepatic cell line (HepG2 ATCC HB-8065). Description: cells. The conditions noted are these: HepG2, 24 h, read-out: IC50 (μg/mL) HepG2.
The subject of assay [6] is Staphylococcus aureus ATCC 29213. Description: microbe, parasite or virus in culture. In kind it is cell-based. The conditions noted are these: ATCC29213.
Assay [7] concerns Streptococcus pneumoniae ATCC 49619. Description: microbe, parasite or virus in culture. The assay is classed as cell-based. The following applies: ATCC49619.
Assay [8] deals with Acinetobacter baumannii ATCC 19606. Description: microbe, parasite or virus in culture. The assay is classed as cell-based. The following applies: ATCC19606.
The subject of assay [9] is Acinetobacter baumannii NCTC 13420. Description: microbe, parasite or virus in culture. The assay is classed as cell-based. The following applies: NCTC13420.
Assay [10] concerns Haemophilus influenzae ATCC 49247. Description: microbe, parasite or virus in culture. The assay is classed as cell-based. The following applies: ATCC49247.

Values after ≈ are worked out from the molar mass of the structure shown.

The record followed here is patent US20190040083A1 (priority 2016, published 2019).

For `N#Cc1ccc2ccc(=O)n(CCCN3CC[C@@H]4[C@H](C3)OC(=O)N4c3ccc4c(n3)NC(=O)CO4)c2c1` (relative stereo) [Compound 6, rel-1-{3-[(3aR*,7aS*)-2-oxo-1-{3-oxo-2H,3H,4H-pyrido[3,2-b][1,4]oxazin-6-yl}-octahydro-[1,3]oxazolo[5,4-c]pyridin-5-yl]propyl}-2-oxo-1,2-dihydroquinoline-7-carbonitrile], the MIC is below 1 µg/mL in [1]; 10 to 100 µg/mL (≈ 20 to 200 µM) in assay [2]; 10 to 100 µg/mL (≈ 20 to 200 µM) in [3]; 1 to 10 µg/mL (≈ 2 to 20 µM) in assay [4]; below 1 µg/mL in [6]; below 1 µg/mL in assay [7]. Also, the MIC in assay [8] is 1 to 10 µg/mL (≈ 2 to 20 µM); in [9], below 1 µg/mL; in assay [10], 1 to 10 µg/mL (≈ 2 to 20 µM). For the same compound, the IC50 in assay [5] was 10 to 100 µg/mL (≈ 20 to 200 µM).
For `N#Cc1ccc2ccc(=O)n(CCCN3CC[C@@H]4[C@@H](C3)OC(=O)N4c3ccc4c(n3)NC(=O)CO4)c2c1` (relative stereo) [Compound 10, rel-1-{3-[(3aR*,7aR*)-2-oxo-1-{3-oxo-2H,3H,4H-pyrido[3,2-b][1,4]oxazin-6-yl}-octahydro-[1,3]oxazolo[5,4-c]pyridin-5-yl]propyl}-2-oxo-1,2-dihydroquinoline-7-carbonitrile], the MIC in assay [1] is below 1 µg/mL; in [2], 10 to 100 µg/mL (≈ 20 to 200 µM); in assay [3], 1 to 10 µg/mL (≈ 2 to 20 µM); in assay [4], 1 to 10 µg/mL (≈ 2 to 20 µM); in assay [6] it was below 1 µg/mL; in assay [7] it was below 1 µg/mL. The MIC in assay [8], in assay [9] and in [10] was below 1 µg/mL in each case. The IC50 in assay [5] was 10 to 100 µg/mL (≈ 20 to 200 µM).
As for `O=C1COc2ccc(N3C(=O)O[C@H]4CN(CCCn5c(=O)ccc6ccccc65)CC[C@H]43)nc2N1` (relative stereo) [Compound 2, rel-1-{3-[(3aR*,7aS*)-2-oxo-1-{3-oxo-2H,3H,4H-pyrido[3,2-b][1,4]oxazin-6-yl}-octahydro-[1,3]oxazolo[5,4-c]pyridin-5-yl]propyl}-1,2-dihydroquinolin-2-one], the MIC in assay [1] is 1 to 10 µg/mL (≈ 2.1 to 21 µM); in assay [2], 10 to 100 µg/mL (≈ 21 to 210 µM); in assay [3], 10 to 100 µg/mL (≈ 21 to 210 µM); in assay [4], 10 to 100 µg/mL (≈ 21 to 210 µM); in [6], below 1 µg/mL; in [7] it was below 1 µg/mL. Moreover, the MIC in [8] is 1 to 10 µg/mL (≈ 2.1 to 21 µM); in [9], below 1 µg/mL; in assay [10], 1 to 10 µg/mL (≈ 2.1 to 21 µM). Further, the IC50 in [5] is 10 to 100 µg/mL (≈ 21 to 210 µM).
On to `COc1ccc2ccc(=O)n(CCCN3CC[C@@H]4[C@@H](C3)OC(=O)N4c3ccc4c(n3)NC(=O)CO4)c2n1` (relative stereo) [Compound 9, rel-1-{3-[(3aR*,7aR*)-2-oxo-1-{3-oxo-2H,3H,4H-pyrido[3,2-b][1,4]oxazin-6-yl}-octahydro-[1,3]oxazolo[5,4-c]pyridin-5-yl]propyl}-7-methoxy-1,2-dihydro-1,8-naphthyridin-2-one], for which the MIC in assay [1] is below 1 µg/mL; in assay [2], 10 to 100 µg/mL (≈ 19.7 to 197 µM); in assay [3] it was 1 to 10 µg/mL (≈ 1.97 to 19.7 µM); in assay [4], 1 to 10 µg/mL (≈ 1.97 to 19.7 µM); in assay [6] it was below 1 µg/mL; in [7], below 1 µg/mL. The MIC in assay [8], in assay [9] and in assay [10] was below 1 µg/mL each time. Besides, the IC50 in assay [5] was 10 to 100 µg/mL (≈ 19.7 to 197 µM).
With `COc1ccc2ccc(=O)n(CCCN3CC[C@H]4[C@@H](C3)OC(=O)N4c3ccc4c(n3)NC(=O)CO4)c2n1` (relative stereo) [Compound 7, rel-1-{3-[(3aR*,7aS*)-2-oxo-1-{3-oxo-2H,3H,4H-pyrido[3,2-b][1,4]oxazin-6-yl}-octahydro-[1,3]oxazolo[5,4-c]pyridin-5-yl]propyl}-7-methoxy-1,2-dihydro-1,8-naphthyridin-2-one], the MIC was below 1 µg/mL in assay [1]; 10 to 100 µg/mL (≈ 19.7 to 197 µM) in assay [2]; 10 to 100 µg/mL (≈ 19.7 to 197 µM) in assay [3]; 1 to 10 µg/mL (≈ 1.97 to 19.7 µM) in assay [4]; below 1 µg/mL in [6]; below 1 µg/mL in [7]. Moreover, the MIC in [8], in [9] and in assay [10] was below 1 µg/mL in each case. The IC50 in assay [5] lay in the range of 10 to 100 µg/mL (≈ 19.7 to 197 µM).
